Results taken from patent US9422267B2, “Fused pyrimidine compounds and use thereof” (Medivation Technologies, Inc., priority 2012, dated 2016).

Key:
NuaK1 = biological target: T1, NuaK1 (Homo sapiens, UniProt O60285); test: Caliper kinase profiling: NuaK1; format: biochemical
T1 sequence (O60285 1-661): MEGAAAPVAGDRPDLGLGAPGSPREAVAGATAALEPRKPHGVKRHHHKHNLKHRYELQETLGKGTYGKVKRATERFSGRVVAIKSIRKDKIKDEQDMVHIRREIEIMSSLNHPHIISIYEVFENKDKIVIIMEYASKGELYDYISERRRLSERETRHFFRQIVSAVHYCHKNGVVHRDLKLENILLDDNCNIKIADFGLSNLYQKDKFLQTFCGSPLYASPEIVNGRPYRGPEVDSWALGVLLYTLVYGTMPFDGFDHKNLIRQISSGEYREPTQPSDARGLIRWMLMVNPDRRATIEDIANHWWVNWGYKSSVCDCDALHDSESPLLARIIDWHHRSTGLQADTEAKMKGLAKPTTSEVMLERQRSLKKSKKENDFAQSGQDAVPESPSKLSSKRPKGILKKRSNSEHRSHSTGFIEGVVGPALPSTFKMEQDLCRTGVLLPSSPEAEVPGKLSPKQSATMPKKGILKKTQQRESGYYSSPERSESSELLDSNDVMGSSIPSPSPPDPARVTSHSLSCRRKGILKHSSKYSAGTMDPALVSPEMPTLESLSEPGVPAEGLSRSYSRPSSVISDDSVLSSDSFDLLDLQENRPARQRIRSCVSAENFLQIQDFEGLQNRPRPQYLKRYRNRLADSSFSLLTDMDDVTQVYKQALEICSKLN

Abl(T315I) = biological target: T2, Abl(T315I) (Homo sapiens, UniProt P00519, T315I); test: Caliper kinase profiling: Abl(T315I); format: biochemical
T2 construct: purchased Caliper LifeSciences (ProfilerPro Kinase Selectivity Assay Kits)

LYNB = LYNB (Homo sapiens, UniProt P07948); test: Caliper kinase profiling: LYNB; format: biochemical
Sequence of LYNB (P07948 1-491 isoform P07948-2): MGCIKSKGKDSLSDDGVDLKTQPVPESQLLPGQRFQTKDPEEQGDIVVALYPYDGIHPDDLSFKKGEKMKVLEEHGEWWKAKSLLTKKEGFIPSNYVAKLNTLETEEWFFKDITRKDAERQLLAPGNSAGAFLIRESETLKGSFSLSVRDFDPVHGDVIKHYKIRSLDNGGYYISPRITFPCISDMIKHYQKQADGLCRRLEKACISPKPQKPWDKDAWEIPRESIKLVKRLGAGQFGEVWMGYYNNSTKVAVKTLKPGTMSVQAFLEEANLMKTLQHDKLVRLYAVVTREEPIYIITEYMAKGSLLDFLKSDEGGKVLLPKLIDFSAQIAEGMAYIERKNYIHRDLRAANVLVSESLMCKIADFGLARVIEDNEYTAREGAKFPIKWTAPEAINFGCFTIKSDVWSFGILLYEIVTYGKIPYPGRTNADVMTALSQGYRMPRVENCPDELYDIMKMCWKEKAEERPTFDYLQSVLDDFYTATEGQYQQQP

BMX = biological target: T3, BMX (Homo sapiens, UniProt P51813); test: Caliper kinase profiling: BMX; format: biochemical
T3 sequence (P51813 1-675): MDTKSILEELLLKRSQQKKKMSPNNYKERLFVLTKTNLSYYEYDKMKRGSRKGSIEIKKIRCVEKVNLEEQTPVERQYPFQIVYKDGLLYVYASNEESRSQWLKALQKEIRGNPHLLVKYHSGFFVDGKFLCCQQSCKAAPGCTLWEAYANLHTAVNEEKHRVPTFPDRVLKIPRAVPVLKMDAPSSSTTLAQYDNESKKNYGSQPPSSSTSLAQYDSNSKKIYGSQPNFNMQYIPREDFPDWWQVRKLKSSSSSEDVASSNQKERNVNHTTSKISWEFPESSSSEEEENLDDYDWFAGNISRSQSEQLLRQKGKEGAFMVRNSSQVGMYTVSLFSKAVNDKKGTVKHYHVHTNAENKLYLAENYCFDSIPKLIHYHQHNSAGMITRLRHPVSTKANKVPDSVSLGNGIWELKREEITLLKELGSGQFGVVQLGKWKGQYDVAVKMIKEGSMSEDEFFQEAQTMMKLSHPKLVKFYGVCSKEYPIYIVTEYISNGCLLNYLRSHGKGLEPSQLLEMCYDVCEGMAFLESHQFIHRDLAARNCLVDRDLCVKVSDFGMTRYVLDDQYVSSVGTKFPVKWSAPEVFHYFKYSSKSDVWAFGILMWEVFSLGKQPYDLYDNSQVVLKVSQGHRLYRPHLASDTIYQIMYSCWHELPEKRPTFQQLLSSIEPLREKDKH

FGFR2 = FGFR2 (Homo sapiens, UniProt P21802); test: Caliper kinase profiling: FGFR2; format: biochemical
Sequence of FGFR2 (P21802 22-821): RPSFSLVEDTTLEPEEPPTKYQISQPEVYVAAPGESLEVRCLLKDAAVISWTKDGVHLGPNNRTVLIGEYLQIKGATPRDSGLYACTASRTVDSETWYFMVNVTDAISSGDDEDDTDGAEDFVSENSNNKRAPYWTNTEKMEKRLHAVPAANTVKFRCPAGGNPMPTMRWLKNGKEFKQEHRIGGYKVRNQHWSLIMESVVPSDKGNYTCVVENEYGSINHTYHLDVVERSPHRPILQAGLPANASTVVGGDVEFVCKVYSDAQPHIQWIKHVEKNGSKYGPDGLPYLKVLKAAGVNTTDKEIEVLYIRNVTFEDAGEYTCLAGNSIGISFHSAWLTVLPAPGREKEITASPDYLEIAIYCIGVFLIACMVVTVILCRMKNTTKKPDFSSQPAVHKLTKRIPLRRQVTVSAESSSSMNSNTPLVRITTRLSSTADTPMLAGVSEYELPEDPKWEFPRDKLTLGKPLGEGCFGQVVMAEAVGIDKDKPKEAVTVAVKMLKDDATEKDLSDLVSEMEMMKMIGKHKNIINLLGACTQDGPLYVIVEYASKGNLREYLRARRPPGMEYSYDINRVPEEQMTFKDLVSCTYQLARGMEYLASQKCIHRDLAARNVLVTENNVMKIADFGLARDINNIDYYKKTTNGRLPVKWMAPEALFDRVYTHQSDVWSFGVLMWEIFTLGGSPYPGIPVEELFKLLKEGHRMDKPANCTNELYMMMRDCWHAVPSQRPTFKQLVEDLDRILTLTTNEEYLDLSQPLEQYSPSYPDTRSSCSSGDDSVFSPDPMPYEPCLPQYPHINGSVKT

MST1R = MST1R (Homo sapiens, UniProt Q04912); test: Caliper kinase profiling: MST1R; format: biochemical; conditions: read-out: Average % Inh @ 1 μM
Sequence of MST1R (Q04912 25-1400): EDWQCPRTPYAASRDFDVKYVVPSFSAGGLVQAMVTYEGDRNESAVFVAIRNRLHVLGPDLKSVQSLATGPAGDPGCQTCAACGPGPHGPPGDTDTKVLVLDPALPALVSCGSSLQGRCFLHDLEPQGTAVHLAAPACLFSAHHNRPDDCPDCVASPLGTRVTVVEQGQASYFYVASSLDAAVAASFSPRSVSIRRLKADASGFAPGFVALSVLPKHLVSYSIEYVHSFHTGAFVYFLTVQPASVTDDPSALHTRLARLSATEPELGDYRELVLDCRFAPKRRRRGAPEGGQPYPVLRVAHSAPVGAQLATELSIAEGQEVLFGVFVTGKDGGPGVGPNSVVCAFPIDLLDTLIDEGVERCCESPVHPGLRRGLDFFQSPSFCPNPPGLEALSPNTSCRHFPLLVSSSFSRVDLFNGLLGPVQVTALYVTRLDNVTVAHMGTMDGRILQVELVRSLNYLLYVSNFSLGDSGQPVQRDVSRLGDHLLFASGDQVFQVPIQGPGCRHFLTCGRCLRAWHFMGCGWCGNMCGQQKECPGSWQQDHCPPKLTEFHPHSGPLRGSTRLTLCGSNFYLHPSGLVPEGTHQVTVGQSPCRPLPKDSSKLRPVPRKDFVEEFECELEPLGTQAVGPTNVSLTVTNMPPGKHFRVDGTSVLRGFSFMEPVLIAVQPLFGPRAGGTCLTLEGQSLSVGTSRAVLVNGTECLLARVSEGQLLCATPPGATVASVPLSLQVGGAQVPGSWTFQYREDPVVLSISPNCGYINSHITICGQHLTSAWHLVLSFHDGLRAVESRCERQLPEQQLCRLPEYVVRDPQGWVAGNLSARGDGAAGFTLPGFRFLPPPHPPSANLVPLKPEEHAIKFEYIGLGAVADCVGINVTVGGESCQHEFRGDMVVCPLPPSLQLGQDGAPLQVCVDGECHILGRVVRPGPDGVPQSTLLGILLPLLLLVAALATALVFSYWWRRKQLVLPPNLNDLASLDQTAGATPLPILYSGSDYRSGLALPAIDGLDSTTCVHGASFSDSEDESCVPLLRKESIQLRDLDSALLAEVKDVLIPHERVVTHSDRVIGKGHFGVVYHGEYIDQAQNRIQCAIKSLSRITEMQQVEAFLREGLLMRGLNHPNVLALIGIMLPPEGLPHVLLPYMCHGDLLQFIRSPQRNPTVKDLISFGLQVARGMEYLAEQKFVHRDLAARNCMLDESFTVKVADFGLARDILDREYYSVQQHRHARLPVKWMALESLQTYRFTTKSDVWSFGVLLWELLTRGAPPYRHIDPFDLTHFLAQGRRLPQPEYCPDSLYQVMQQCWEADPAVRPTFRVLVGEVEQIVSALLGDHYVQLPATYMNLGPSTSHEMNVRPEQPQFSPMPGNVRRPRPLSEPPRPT

TYRO3 = biological target: T4, TYRO3 (Homo sapiens, UniProt Q06418); test: Caliper kinase profiling: TYRO3; format: biochemical
T4 sequence (Q06418 41-890): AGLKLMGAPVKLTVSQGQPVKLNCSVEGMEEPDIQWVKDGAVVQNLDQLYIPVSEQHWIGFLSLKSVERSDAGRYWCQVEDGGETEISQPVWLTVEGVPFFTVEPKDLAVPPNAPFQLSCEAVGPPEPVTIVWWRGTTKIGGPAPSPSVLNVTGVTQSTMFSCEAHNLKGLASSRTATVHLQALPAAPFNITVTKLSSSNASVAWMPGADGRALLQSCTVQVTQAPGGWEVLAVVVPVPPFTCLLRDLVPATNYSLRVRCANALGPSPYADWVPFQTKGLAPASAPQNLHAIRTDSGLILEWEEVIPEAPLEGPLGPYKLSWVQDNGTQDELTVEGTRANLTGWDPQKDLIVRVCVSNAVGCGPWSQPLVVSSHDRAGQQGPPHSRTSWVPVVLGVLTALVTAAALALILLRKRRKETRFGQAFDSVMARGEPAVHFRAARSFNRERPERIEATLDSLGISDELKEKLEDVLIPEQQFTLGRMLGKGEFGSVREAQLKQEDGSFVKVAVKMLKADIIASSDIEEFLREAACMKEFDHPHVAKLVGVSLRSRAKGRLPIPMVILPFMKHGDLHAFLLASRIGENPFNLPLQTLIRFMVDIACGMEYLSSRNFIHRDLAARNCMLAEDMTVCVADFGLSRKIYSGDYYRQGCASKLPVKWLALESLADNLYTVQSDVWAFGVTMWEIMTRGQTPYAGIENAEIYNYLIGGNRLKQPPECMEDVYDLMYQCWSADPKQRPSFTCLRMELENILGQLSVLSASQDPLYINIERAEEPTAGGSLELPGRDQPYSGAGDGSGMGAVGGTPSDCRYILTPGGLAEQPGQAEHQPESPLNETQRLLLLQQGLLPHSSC

ASPC-1 = test: Cell viability: pancreatic cancer cell line ASPC-1; format: cell-based; conditions: Homo sapiens, ASPC1; ASPC-1 pancreatic cancer cell line
Protocol: This assay quantitates the ATP present in order to determine the number of viable cells in culture. Briefly, the compounds were incubated with the cells for 72 h, followed by cell lysis. The resulting luminescent signal is proportional to the amount of ATP present and, therefore, directly proportional to the number of cells present in culture.
Analogous studies utilizing pancreatic cancer cell lines such as ASPC-1 and PANC-1 can be performed with compounds of the invention.

[1] = 10 nM, read-out: Average % Inh @ 10 nM
[2] = 100 nM, read-out: Average % Inh @ 100 nM
[3] = 1 μM, read-out: Average % Inh @ 1 μM

Row | inhibition at 0.01 µM (NuaK1; NuaK1, 10 nM, read-out: Average % Inh @ 10 nM) | inhibition at 0.1 µM (NuaK1; NuaK1, 100 nM, read-out: Average % Inh @ 100 nM) | inhibition at 1 µM (NuaK1; NuaK1, 1 μM, read-out: Average % Inh @ 1 μM) | inhibition at 0.01 µM (Abl(T315I); [1]) | inhibition at 0.1 µM (Abl(T315I); [2]) | inhibition at 1 µM (Abl(T315I); [3]) | inhibition at 0.01 µM (LYNB; [1]) | inhibition at 0.1 µM (LYNB; [2]) | inhibition at 1 µM (LYNB; [3]) | inhibition at 0.01 µM (BMX; [1]) | inhibition at 0.1 µM (BMX; [2]) | inhibition at 1 µM (BMX; [3]) | inhibition at 0.01 µM (FGFR2; FGFR2, 10 nM, read-out: Average % Inh @ 10 nM) | inhibition at 0.1 µM (FGFR2; FGFR2, 100 nM, read-out: Average % Inh @ 100 nM) | inhibition at 1 µM (FGFR2; FGFR2, 1 μM, read-out: Average % Inh @ 1 μM) | inhibition at 1 µM (MST1R) | inhibition at 0.01 µM (TYRO3; TYRO3, 10 nM, read-out: Average % Inh @ 10 nM) | inhibition at 0.1 µM (TYRO3; TYRO3, 100 nM, read-out: Average % Inh @ 100 nM) | inhibition at 1 µM (TYRO3; TYRO3, 1 μM, read-out: Average % Inh @ 1 μM) | IC50 (ASPC-1) | SMILES
1 | < 39% | 40 to 59% | > 60% | < 39% | < 39% | > 60% | < 39% | 40 to 59% | > 60% | < 39% | < 39% | 40 to 59% | < 39% | < 39% | > 60% | > 60% | < 39% | < 39% | > 60% |  | O=C(Nc1ccc(F)nc1)C1CCCN1c1nc2c(c(Nc3cc(C4CC4)[nH]n3)n1)CCC2 (single isomer, unassigned) [Compound 2b, 1-(4-(5-cyclopropyl-1H-pyrazol-3-ylamino)-6,7-dihydro-5H-cyclopenta[d]pyrimidin-2-yl)-N-(6-fluoropyridin-3-yl)pyrrolidine-2-carboxamide]
2 |  |  |  |  |  |  |  |  |  |  |  |  |  |  |  |  |  |  |  | 195 nM | CC(C)c1cc(Nc2nc(N3CCCC3C(=O)Nc3ccc(F)nc3)nc3c2CCC3)n[nH]1 (single isomer, unassigned) [Compound 8b]
